Measured values published in publication PMC9618446 (Biomedicine & Pharmacotherapy, 2022).

Assays:
[1] = tested on: SARS-CoV-2 (isolate Wuhan-Hu-1); experiment: microbe, parasite or virus in culture; format: cell-based; details: for IC50: Severe acute respiratory syndrome coronavirus 2, Vero C1008, 24 h, read-out: IC50 (half-maximal inhibitory concentration), anti-SARS-CoV-2 activity
[2] = tested on: CXCL-10; format: cell-based, human
[3] = tested on: IL-1β; format: cell-based, human
[4] = tested on: SARS-CoV-2 S PsV; experiment: microbe, parasite or virus in culture; format: cell-based
[5] = tested on: IL-6; format: cell-based, human
[6] = tested on: 3 C-like protease; details: cited from earlier work
[7] = tested on: papain-like protease; details: cited from earlier work
[8] = in vitro; details: African green monkey
[9] = in vitro; details: human
[10] = tested on: SARS-CoV-2 S protein-mediated cell-cell fusion; format: cell-based

| Structure (SMILES) | release of CXCL-10 from THP-1 cells [2] | release of IL-1β from THP-1 cells [3] | SI: selectivity index as CC50/IC50 [1] | IC50 [1] [µM] | CC50 [8] [µM] | CC50 [9] [µM] | other results |
| --- | --- | --- | --- | --- | --- | --- | --- |
| COc1c(O)cc2occ(-c3ccc(O)cc3)c(=O)c2c1O [TE, Tectorigenin] | inhibited the release of both CXCL-10 and IL-1β | inhibited the release of both CXCL-10 and IL-1β |  |  |  |  | inhibition of SARS-CoV-2 infection [1]: approximately 48.31% |
| O=c1cc(-c2ccc(O)c(O)c2)oc2cc(O)cc(O)c12 [LU, Luteolin] | inhibited the release of CXCL-10 |  |  |  |  |  |  |
| O=C(O)[C@H]1O[C@@H](Oc2cc3oc(-c4ccc(O)cc4)cc(=O)c3c(O)c2O)[C@H](O)[C@@H](O)[C@@H]1O [SC, Scutellarin] |  |  | > 8.90 | 22.47 ± 0.19 | > 200 | > 400 | inhibitory activity against entry of SARS-CoV-2 S PsV (in words) [4]: inhibits neither the entry of SARS-CoV-2 S PsV; release of IL-6 from THP-1 cells [5]: except SC; inhibition of 3 C-like protease activity [6]: nor the activity of 3 C-like protease and papain-like protease; inhibition of papain-like protease activity [7]: nor the activity of 3 C-like protease and papain-like protease |
| Oc1ccc(/C=C/c2cc(O)cc(O)c2)cc1 [RE, Resveratrol] |  | inhibited the release of IL-1β |  |  |  |  |  |
| O=C(/C=C/c1ccc(O)cc1)c1ccc(O)cc1O [IS, Isoliquiritigenin] | inhibited the release of both CXCL-10 and IL-1β | inhibited the release of both CXCL-10 and IL-1β |  |  |  |  |  |
| COc1c(O)cc2oc(-c3ccccc3)cc(=O)c2c1O [OA, Oroxylin A] | inhibited the release of both CXCL-10 and IL-1β | inhibited the release of both CXCL-10 and IL-1β | > 6.37 | 31.39 ± 0.07 | > 200 | > 400 | IC50 ([4]; Severe acute respiratory syndrome coronavirus 2, read-out: IC50 against SARS-CoV-2 S PsV infection): 15 ± 1.46 µM; SARS-CoV-2 S protein-mediated cell-cell fusion (syncytium formation) [10]: significantly inhibited |
| COc1ccc([C@@H]2CC(=O)c3c(O)cc(O)cc3O2)cc1O [HE, Hesperetin] |  |  | > 4.00 | 50 ± 0.66 | > 200 | > 400 |  |
| O=C1C[C@@H](c2ccc(O)cc2)Oc2cc(O)cc(O)c21 [NA, Naringenin] | inhibited the release of CXCL-10 |  |  |  |  |  |  |
